# Test results from US20100159039A1, “ANTIVIRAL AGENTS CONTAINING A FERMENTATION PRODUCT OF GARLIC BY LACTIC ACID BACTERIA” (Liisna Inc., priority 2008, published 2010).
# Read-outs that look alike come from different tables or passages of the source.
# How the values were obtained:
# [1] = system: influenza virus Type H1N1 (A/Taiwan/1/86); experiment: CPE inhibition assay in MDCK cells, influenza A/H1N1; assay type: cell-based; details: for EC50: 72 h, MDCK cells, 100 CCID50, three days, read-out: Antiviral activity (EC50) Taiwan A/H1N1
# in vitro = details: dog
# [2] = system: influenza virus Type H3N2 (A/Seoul/11/88); experiment: CPE inhibition assay in MDCK cells, influenza A/H3N2; assay type: cell-based; details: for EC50: 72 h, MDCK cells, 100 CCID50, three days, read-out: Antiviral activity (EC50) Seoul A/H3N2
# [3] = system: influenza virus Type B (B/Panama/45/90); experiment: CPE inhibition assay in MDCK cells, influenza B; assay type: cell-based; details: for EC50: Influenza B virus, MDCK, 72 h, read-out: Antiviral activity (EC50) Panama B
# [4] = system: MDCK (Madin-Darby canine kidney) cells
Structure (SMILES),EC50 [1],CC50 (in vitro),"Selectivity index (SI, CC50/EC50) Seoul A/H3N2 [2]",EC50 [2],EC50 [3],"Selectivity index (SI, CC50/EC50) Taiwan A/H1N1 ([1]; CC50/EC50)",Toxicity CC50 (50% cytotoxic concentration) [4],"Selectivity index (SI, CC50/EC50) Seoul A/H3N2 ([2]; CC50/EC50)","Selectivity index (SI, CC50/EC50) Panama B [3]","Selectivity index (SI, CC50/EC50) Taiwan A/H1N1 [1]"
"NC12CC3CC(CC(C3)C1)C2 [Amantadine, amantadine]",> 100 µg/mL,> 100 µg/mL,>204.1,0.49 µg/mL,> 100 µg/mL,–,–,–,–,–
"CC(O)C(=O)O (centres unmarked) [Lactic acid, lactic acid]",–,–,–,–,–,<1.00,0.014,<1.00,<1.00,–
"CCOC(=O)C1=C[C@@H](OC(CC)CC)[C@H](NC(C)=O)[C@@H](N)C1 [Oseltamivir, oseltamivir]",16.4 µg/mL,> 100 µg/mL,–,0.49 µg/mL,10.1 µg/mL,>6.1,–,>202.4,>9.9,–
"NC(=O)c1ncn([C@@H]2O[C@H](CO)[C@@H](O)[C@H]2O)n1 [Ribavirin, ribavirin]",6.54 µg/mL,> 100 µg/mL,>34.7,2.88 µg/mL,2.29 µg/mL,–,–,–,>43.7,>15.3
